According to US7795261B2, “Substituted 1-piperidin-4-yl-4-pyrrolidin-3-yl-piperazine derivatives and their use as neurokinin antagonists” (Janssen Pharmaceutica NV, priority 2002, dated 2010):

Columns and labels:
Type in all cases: cell-based
NK3 = target: T1, NK3 (Homo sapiens, UniProt P29371); assay: Signal transduction (ST), intracellular Ca++ (FLIPR), NK3; details: read-out: pIC50 NK3 (converted)
T1 sequence (P29371 1-465): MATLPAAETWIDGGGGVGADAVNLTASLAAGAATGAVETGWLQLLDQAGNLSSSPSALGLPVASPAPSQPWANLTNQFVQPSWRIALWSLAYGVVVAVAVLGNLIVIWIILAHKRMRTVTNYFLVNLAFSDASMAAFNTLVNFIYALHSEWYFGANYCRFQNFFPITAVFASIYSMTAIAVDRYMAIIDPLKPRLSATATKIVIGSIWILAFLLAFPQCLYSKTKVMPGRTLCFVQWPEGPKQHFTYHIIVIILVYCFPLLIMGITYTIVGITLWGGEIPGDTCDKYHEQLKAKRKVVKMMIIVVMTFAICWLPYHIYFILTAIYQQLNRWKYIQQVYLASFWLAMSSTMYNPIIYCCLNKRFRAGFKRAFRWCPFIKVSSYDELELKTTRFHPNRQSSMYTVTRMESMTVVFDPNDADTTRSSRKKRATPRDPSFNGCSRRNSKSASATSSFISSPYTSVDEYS

NK1 = NK1 (Homo sapiens, UniProt P25103); assay: Signal transduction (ST), intracellular Ca++ (FLIPR), NK1 antagonistic activity; details: read-out: pIC50 NK1 (converted)
Chain of NK1 (P25103 whole entry): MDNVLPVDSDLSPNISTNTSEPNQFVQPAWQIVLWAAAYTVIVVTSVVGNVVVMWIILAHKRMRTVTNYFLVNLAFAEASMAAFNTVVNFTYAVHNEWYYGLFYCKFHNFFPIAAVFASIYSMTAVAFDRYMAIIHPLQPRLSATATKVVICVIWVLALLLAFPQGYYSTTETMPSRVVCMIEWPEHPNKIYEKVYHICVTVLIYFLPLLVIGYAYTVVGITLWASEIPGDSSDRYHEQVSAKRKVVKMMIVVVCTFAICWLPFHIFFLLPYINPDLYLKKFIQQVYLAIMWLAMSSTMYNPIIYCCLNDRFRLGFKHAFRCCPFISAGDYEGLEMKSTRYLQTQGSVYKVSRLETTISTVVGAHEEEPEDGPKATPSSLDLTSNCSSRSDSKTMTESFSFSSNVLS
Outline: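 Confluent cells loaded with 2 μM Fluo3 (1 h, 37 °C, probenecid), preincubated 20 min at RT with antagonist concentration range, then agonist added. Peak Ca++ transient read by FLIPR in Krebs buffer pH 7.4; IC50 by non-linear regression.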

NK2 = target: T2, NK2 (Homo sapiens, UniProt P21452); assay: Signal transduction (ST), intracellular Ca++ (FLIPR), NK2; details: read-out: pIC50 NK2 (converted)
T2 sequence (P21452 1-398): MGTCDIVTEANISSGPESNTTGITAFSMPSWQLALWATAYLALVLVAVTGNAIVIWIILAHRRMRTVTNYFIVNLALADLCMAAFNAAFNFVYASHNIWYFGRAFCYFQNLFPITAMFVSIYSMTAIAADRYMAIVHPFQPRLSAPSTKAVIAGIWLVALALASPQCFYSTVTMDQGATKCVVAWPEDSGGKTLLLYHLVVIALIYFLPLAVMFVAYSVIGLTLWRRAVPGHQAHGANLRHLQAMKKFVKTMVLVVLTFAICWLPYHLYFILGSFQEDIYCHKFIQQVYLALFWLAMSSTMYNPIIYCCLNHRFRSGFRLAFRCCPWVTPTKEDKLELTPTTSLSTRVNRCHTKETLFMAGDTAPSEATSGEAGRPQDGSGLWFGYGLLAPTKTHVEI

| Compound | IC50 (NK3) | IC50 (NK1) | IC50 (NK2) |
| --- | --- | --- | --- |
| O=C(c1cc(C(F)(F)F)cc(C(F)(F)F)c1)N1CC[C@H](N2CCN(C3CCN(C(=O)C4(O)CC4)C3)CC2)C[C@H]1Cc1ccccc1 (stereo partly drawn) [Compound 276] | 5.01 µM | 0.01 µM | 3.16 µM |
| O=C(c1ccsc1)N1CCC(N2CCN(C3CCN(C(=O)c4cc(C(F)(F)F)cc(C(F)(F)F)c4)C(Cc4ccc(F)cc4)C3)CC2)C1 (stereo not drawn) [Compound 278] | 2 µM | 0.0158 µM | 3.98 µM |
| O=C(c1ccccc1Cl)N1CCC(N2CCN(C3CCN(C(=O)c4cc(C(F)(F)F)cc(C(F)(F)F)c4)C(Cc4ccc(F)cc4)C3)CC2)C1 (stereo not drawn) [Compound 279] | 2 µM | 0.0158 µM | 3.98 µM |
| COc1ccc(S(=O)(=O)N2CCC(N3CCN([C@H]4CCN(C(=O)c5cc(C(F)(F)F)cc(C(F)(F)F)c5)[C@H](Cc5ccccc5)C4)CC3)C2)cc1 (stereo partly drawn) [Compound 280] | 3.98 µM | 0.0158 µM | 1.26 µM |
| Cn1cnc(C(=O)N2CCC(N3CCN([C@H]4CCN(C(=O)c5cc(C(F)(F)F)cc(C(F)(F)F)c5)[C@H](Cc5ccccc5)C4)CC3)C2)c1 (stereo partly drawn) [Compound 282] | 3.98 µM | 0.0126 µM | 3.98 µM |
| N#Cc1ccc(NC(=O)N2CCC(N3CCN([C@H]4CCN(C(=O)c5cc(C(F)(F)F)cc(C(F)(F)F)c5)[C@H](Cc5ccccc5)C4)CC3)C2)cc1 (stereo partly drawn) [Compound 283] | 2.51 µM | 0.0251 µM | 3.98 µM |
| O=C(Nc1ccccc1F)N1CCC(N2CCN([C@H]3CCN(C(=O)c4cc(C(F)(F)F)cc(C(F)(F)F)c4)[C@H](Cc4ccccc4)C3)CC2)C1 (stereo partly drawn) [Compound 284] | 3.98 µM | 0.0126 µM | 5.01 µM |
| O=C(c1cnccn1)N1CC[C@@H](N2CCN([C@H]3CCN(C(=O)c4cc(C(F)(F)F)cc(C(F)(F)F)c4)[C@H](Cc4ccc(Cl)c(Cl)c4)C3)CC2)C1 [Compound 286] | 0.398 µM | 0.00631 µM | 1 µM |
| O=C(c1ccsc1)N1CC[C@@H](N2CCN([C@H]3CCN(C(=O)c4cc(C(F)(F)F)cc(C(F)(F)F)c4)[C@H](Cc4ccc(Cl)c(Cl)c4)C3)CC2)C1 [Compound 287] | 0.251 µM | 0.0126 µM | 1.26 µM |
| O=C(c1ccoc1)N1CC[C@@H](N2CCN([C@H]3CCN(C(=O)c4cc(C(F)(F)F)cc(C(F)(F)F)c4)[C@H](Cc4ccc(Cl)c(Cl)c4)C3)CC2)C1 [Compound 288] | 0.794 µM | 0.00794 µM | 1.58 µM |
| CC(C)(C)C(=O)N1CC[C@@H](N2CCN([C@H]3CCN(C(=O)c4cc(C(F)(F)F)cc(C(F)(F)F)c4)[C@H](Cc4ccc(Cl)c(Cl)c4)C3)CC2)C1 [Compound 289] | 0.794 µM | 0.00794 µM | 2 µM |
| O=C(c1cc(C(F)(F)F)cc(C(F)(F)F)c1)N1CC[C@H](N2CCN(C3CCN(S(=O)(=O)c4sccc4COCc4ccccc4)C3)CC2)C[C@H]1Cc1ccccc1 (stereo partly drawn) [Compound 292] | 0.794 µM | 0.1 µM | 0.794 µM |
| CC(C)NC(=O)N1CCC(N2CCN([C@H]3CCN(C(=O)c4cc(C(F)(F)F)cc(C(F)(F)F)c4)[C@H](Cc4ccccc4)C3)CC2)C1 (stereo partly drawn) [Compound 293] | 5.01 µM | 0.0158 µM | 6.31 µM |
| O=C(C1CCCCN1C(=O)c1ccccc1Cl)N1CCC(N2CCN(C3CCN(C(=O)c4cc(C(F)(F)F)cc(C(F)(F)F)c4)C(Cc4ccccc4)C3)CC2)C1 (stereo not drawn) [Compound 295] | 0.316 µM | 0.0158 µM | 2 µM |
| O=C(C1CCCCN1C(=O)C1CC1)N1CCC(N2CCN([C@H]3CCN(C(=O)c4cc(C(F)(F)F)cc(C(F)(F)F)c4)[C@H](Cc4ccccc4)C3)CC2)C1 (stereo partly drawn) [Compound 296] | 0.794 µM | 0.00631 µM | 1.58 µM |
| CC(C)(C)C(=O)N1CCCCC1C(=O)N1CCC(N2CCN([C@H]3CCN(C(=O)c4cc(C(F)(F)F)cc(C(F)(F)F)c4)[C@H](Cc4ccccc4)C3)CC2)C1 (stereo partly drawn) [Compound 297] | 1.26 µM | 0.00631 µM | 2.51 µM |
| O=C(C1CCCCC1)N1CC[C@@H](N2CCN([C@H]3CCN(C(=O)c4cc(C(F)(F)F)cc(C(F)(F)F)c4)[C@H](Cc4ccc(Cl)c(Cl)c4)C3)CC2)C1 [Compound 299] | 0.794 µM | 0.00794 µM | 2.51 µM |

| Compound | IC50 (NK3) | IC50 (NK1) | IC50 (NK2) |
| --- | --- | --- | --- |
| COc1ccccc1S(=O)(=O)N1CCC(N2CCN([C@H]3CCN(C(=O)c4cc(C(F)(F)F)cc(C(F)(F)F)c4)[C@H](Cc4ccccc4)C3)CC2)C1 (stereo partly drawn) [Compound 300] | 2 µM | 0.01 µM | 0.794 µM |
| N#CN=C(N1CCCC1)N1CCC(N2CCN([C@H]3CCN(C(=O)c4cc(C(F)(F)F)cc(C(F)(F)F)c4)[C@H](Cc4ccccc4)C3)CC2)C1 (stereo partly drawn) [Compound 302] | 1 µM | 0.00794 µM | 2.51 µM |
| O=C(c1cc(C(F)(F)F)cc(C(F)(F)F)c1)N1CC[C@H](N2CCN(C3CCN(S(=O)(=O)c4ccc(O)cc4)C3)CC2)C[C@H]1Cc1ccccc1 (stereo partly drawn) [Compound 303] | 3.16 µM | 0.00631 µM | 0.631 µM |
| CN(C(=O)OC(C)(C)C)C(C)(C)C(=O)N1CCC(N2CCN(C3CCN(C(=O)c4cc(C(F)(F)F)cc(C(F)(F)F)c4)C(Cc4ccccc4)C3)CC2)C1 (stereo not drawn) [Compound 304] | 0.158 µM | 0.01 µM | 1.58 µM |
| O=C(c1cc(C(F)(F)F)cc(C(F)(F)F)c1)N1CC[C@H](N2CCN(C3CCN(S(=O)(=O)c4ccccc4O)C3)CC2)C[C@H]1Cc1ccccc1 (stereo partly drawn) [Compound 307] | 1.26 µM | 0.0158 µM | 1.26 µM |
| O=C(c1cc(C(F)(F)F)cc(C(F)(F)F)c1)N1CC[C@H](N2CCN(C3CCN(S(=O)(=O)c4sccc4CO)C3)CC2)C[C@H]1Cc1ccccc1 (stereo partly drawn) [Compound 308] | 0.251 µM | 0.00794 µM | 0.2 µM |
| CN(C(=O)C1CC1)C(C)(C)C(=O)N1CCC(N2CCN(C3CCN(C(=O)c4cc(C(F)(F)F)cc(C(F)(F)F)c4)C(Cc4ccccc4)C3)CC2)C1 (stereo not drawn) [Compound 310] | 3.98 µM | 0.00794 µM | 2 µM |
| O=C(C1CC1)N1CC[C@H](N2CCN([C@H]3CCN(C(=O)c4cc(C(F)(F)F)cc(C(F)(F)F)c4)[C@H](Cc4ccc(Cl)c(Cl)c4)C3)CC2)C1 [Compound 312] | 0.501 µM | 0.00794 µM | 1.58 µM |
| CC(C)(C)C(=O)N1CC[C@H](N2CCN([C@H]3CCN(C(=O)c4cc(C(F)(F)F)cc(C(F)(F)F)c4)[C@H](Cc4ccc(Cl)c(Cl)c4)C3)CC2)C1 [Compound 313] | 0.251 µM | 0.00398 µM | 0.631 µM |
| O=C(C1CCCCC1)N1CC[C@H](N2CCN([C@H]3CCN(C(=O)c4cc(C(F)(F)F)cc(C(F)(F)F)c4)[C@H](Cc4ccc(Cl)c(Cl)c4)C3)CC2)C1 [Compound 314] | 0.501 µM | 0.0158 µM | 1.26 µM |
| O=C(c1ccccc1Cl)N1CC[C@H](N2CCN([C@H]3CCN(C(=O)c4cc(C(F)(F)F)cc(C(F)(F)F)c4)[C@H](Cc4ccc(Cl)c(Cl)c4)C3)CC2)C1 [Compound 315] | 0.631 µM | 0.00501 µM | 0.501 µM |
| O=C(c1c(Cl)cccc1Cl)N1CC[C@H](N2CCN([C@H]3CCN(C(=O)c4cc(C(F)(F)F)cc(C(F)(F)F)c4)[C@H](Cc4ccc(Cl)c(Cl)c4)C3)CC2)C1 [Compound 316] | 0.631 µM | 0.02 µM | 0.794 µM |
| O=C(c1ccco1)N1CC[C@H](N2CCN([C@H]3CCN(C(=O)c4cc(C(F)(F)F)cc(C(F)(F)F)c4)[C@H](Cc4ccc(Cl)c(Cl)c4)C3)CC2)C1 [Compound 317] | 0.631 µM | 0.01 µM | 0.398 µM |
| O=C(c1cccs1)N1CC[C@H](N2CCN([C@H]3CCN(C(=O)c4cc(C(F)(F)F)cc(C(F)(F)F)c4)[C@H](Cc4ccc(Cl)c(Cl)c4)C3)CC2)C1 [Compound 318] | 0.398 µM | 0.0158 µM | 0.316 µM |
| O=C(c1cc(C(F)(F)F)cc(C(F)(F)F)c1)N1CC[C@H](N2CCN(C3CCN(C(CO)c4cccs4)C3)CC2)C[C@H]1Cc1ccccc1 (stereo partly drawn) [Compound 319] | 3.16 µM | 0.0316 µM | 5.01 µM |
| O=C(c1cc(C(F)(F)F)cc(C(F)(F)F)c1)N1CCC(N2CCN(C3CCN(Cc4ccccc4)C3)CC2)CC1Cc1cc(Cl)cc(Cl)c1 (stereo not drawn) [Compound 320] | 2.51 µM | 0.251 µM | 3.98 µM |
| O=C(c1cccs1)N1CC[C@@H](N2CCN([C@H]3CCN(C(=O)c4cc(C(F)(F)F)cc(C(F)(F)F)c4)[C@H](Cc4ccccc4)C3)CC2)C1 [Compound 321] | 0.251 µM | 0.0126 µM | 3.16 µM |
